Key:
[1] = tested on: ISC-enriched organoids in ENR+CD; assay: 384-well secondary screen in ENR+CD incl. early vs. full treatment, secreted LYZ (LYZ.NS, LYZ.S); format: cell-based, C57BL/6 mice
Excerpt: We again assessed treatment effect size with replicate SSMD (using a difference between well replicates and median assay value for all same-plate control wells—see Materials and Methods, High-throughput screening: 384-well secondary screen format and early vs. full treatment analysis) and hits were considered statistically validated by an SSMD greater than the false-positive-derived cutoffs (βα1=0.89 for 8 replicates with alpha=0.05; see Materials and Methods, High-throughput screening: 384-well secondary screen format and early vs. full treatment analysis) for both LYZ.NS and LYZ.S assays (FIG. 7A). Per this new cutoff, 10 dose-treatment combinations corresponding to 7 small molecules were chosen as hits, with every passing dose-treatment having a greater than 0 ATP effect size.
For 384-well plate high-throughput screening, ISC-enriched organoids were passaged and split to single cells with TyrpLE (Thermo Fisher Scientific) and cultured for 2-3 days in ENR+CVY prior to transfer to a “2.5-D” 384-well plate culture system. To prepare for “2.5D” plating, cell-laden Matrigel and media were homogenized via mechanical disruption and centrifuged at 300 g for 3 min at 4° C. Supernatant was removed and the pellet washed and spun in basal culture medium repeatedly until the cloudy Matrigel above the cell pellet was gone. On the final wash, pellet was resuspended in basal culture medium, the number of organoids counted, and the cell pellet was resuspended in ENR+CD medium at ˜7 clusters/μL. 384-well plates were first filled with 10 μL of 70% Matrigel (30% basal media) coating in each well using a Tecan Evo 150 Liquid Handling Deck, and allowed to gel at 37° C. for 5 minutes. Then 30 μL of cell-laden media was plated at the center of each well of 384-well plates with the liquid handler, and the plates were spun down at 50 g for 1 minute to embed organoids on the Matrigel surface. Compound libraries were pinned into prepped cell plates using 50 nL pins into 30 μL media/well. Cells were cultured at 37° C. with 5% CO2 for six days in ENR+CD medium supplemented with the tested compounds with a media change at three days. On day six, lysozyme secretion and cell viability were assessed using Lysozyme Assay Kit (EnzChek) and CellTiter-Glo 3D Cell Viability Assay (Promega), respectively, according to the manufacturers' protocols. Briefly, screen plates were washed 3× with FluoroBrite basal media (2 mM GlutaMAX and 10 mM HEPES in FluoroBrite DMEM (Thermo Fisher Scientific)) using a BioTek 406 plate washer with 10 min incubations followed by a 1 min centrifugation at 200 g to settle media between washes. After removal of the third wash, 30 μL of non-stimulated FluoroBrite basal media was added to each screen well using a Tecan Evo 150 Liquid Handling Deck from a non-stimulated treatment master plate, and plates were incubated for 30 min at 37° C. After 30 minutes, the top 15 μL of media from each well of the screen plate was transferred to a non-stimulated LYZ assay plate containing 15 μL of 20× DQ LYZ assay working solution using a Tecan Evo 150 Liquid Handling Deck. The non-stimulated LYZ assay plate was covered, shaken for 10 min, incubated for 50 min at 37° C., then fluorescence measured (shake 10 s; […]/518 nm) using a Tecan M1000 Plate Reader. After the media transfer to the non-stimulated LYZ assay plate, the remaining media was removed from the screen plate and 30 μL of Stimulated FluoroBrite basal media (supplemented with 10 μM CCh) was added to each screen well using a Tecan Evo 150 Liquid Handling Deck from a stimulated treatment master plate, and plates were incubated for 30 min at 37° C. After 30 minutes, the top 15 μL of media from each well of the screen plate was transferred to a stimulated LYZ assay plate containing 15 μL of 20× DQ LYZ assay working solution using a Tecan Evo 150 Liquid Handling Deck. […]

[2] = tested on: mature PC (CD24-mid & LYZ+) and secretory precursor (CD24-hi) populations; assay: Flow cytometry profiling of organoids in 2.5-D (CD24, LYZ); format: cell-based, C57BL/6 mice; conditions: 6-day ENR+CD+treatment, fraction of viable cells, n=3 bio. donors
Description: Cells processed for flow cytometry were first gated to exclude potential debris or doublets (via widely accepted forward and side scatter gating), and subsequently gated for viability (via Zombie-violet viability dye exclusion), all viable cells were considered for CD24 & LYZ expression analysis. […] For flow cytometry profiling of the 6 validate small molecules, ISC-enriched ‘small clusters’ in 3D Matrigel culture were passaged to a “2.5D” 96-well plate culture system for six days of ENR, or ENR+CD+drug culture in the same manner as described previously with the exception of plating in 96-well plates prepared with a polymerized 70% Matrigel coating in each well. Plates were centrifuged at 50 g for 1 min at 4° C. to allow for cells to partially embed in Matrigel coating. Drugs were pinned into their respective wells using the Tecan from a drug stamp plate. Media was changed at day three, including pinning of the drug treatments. At day six, cells were washed 3× with basal media, then harvested from Matrigel by mechanical disruption in TrypLE Express to remove Matrigel and dissociate organoids to single cells. After vigorous pipetting and incubation at 37° C. for 20 mins, dissociated organoids were strained through a 96-well filter plate with a 30-40 μm filter (Pall) into an ultra low-bind 96-well plate (Costar) by centrifuging at 300×g for 3 mins at 4° C. The cell filtrate was centrifuged again at 300×g for 3 mins at 4° C. to pellet the cells. Cell pellets were resuspended in FACS buffer (2% FBS in PBS0), then transferred to an ultra low-bind 96-well plate for flow prep. Cells were stained with Zombie-violet viability dye (BioLegend) at 100× for viability staining and/or antibody staining solution. FITC-conjugated antibody for lysozyme and APC-conjugated antibody for CD24 were used at 100× dilution (BioLegend). Flow cytometry was performed using a LSR Fortessa (BD; Koch Institute Flow Cytometry Core at MIT). Flow cytometry data was analyzed using FlowJo X v10.1 software.

[3] = tested on: ISC-enriched organoids in ENR+CD; assay: 384-well primary screen of 6-day PC differentiation, secreted LYZ (LYZ.NS, LYZ.S); format: cell-based, C57BL/6 mice; conditions: 6-day ENR+CD+library treatment; SSMD > 0.997 and z-scored FC > 1.282
Description: This library offers translational advantages as many of the molecules are either presently used in the clinic for a wide variety of conditions or have been used in clinical trials and animal models.
To prepare for “2.5D” plating, cell-laden Matrigel and media were homogenized via mechanical disruption and centrifuged at 300 g for 3 min at 4° C. Supernatant was removed and the pellet washed and spun in basal culture medium repeatedly until the cloudy Matrigel above the cell pellet was gone. On the final wash, pellet was resuspended in basal culture medium, the number of organoids counted, and the cell pellet was resuspended in ENR+CD medium at ˜7 clusters/μL. 384-well plates were first filled with 10 μL of 70% Matrigel (30% basal media) coating in each well using a Tecan Evo 150 Liquid Handling Deck, and allowed to gel at 37° C. for 5 minutes. […] Compound libraries were pinned into prepped cell plates using 50 nL pins into 30 μL media/well. Cells were cultured at 37° C. with 5% CO2 for six days in ENR+CD medium supplemented with the tested compounds with a media change at three days. On day six, lysozyme secretion and cell viability were assessed using Lysozyme Assay Kit (EnzChek) and CellTiter-Glo 3D Cell Viability Assay (Promega), respectively, according to the manufacturers' protocols. […]

[4] = tested on: conventional organoid (ENR); assay: 384-well screen in conventional organoid (ENR), secreted LYZ (LYZ.NS, LYZ.S); format: cell-based, C57BL/6 mice; conditions: 6-day ENR+treatment, single treatment-dose
6-day ENR+CD cells [5] = assay: Cell pellet ATP after short-term (3-hour) stimulation, 2.5-D 96-well platform; format: cell-based, murine; conditions: CCh: adj. p<0.01 for 10 and 100 μM doses
Excerpt: We first sought to profile the potential short-term actors, IFN-γ, LPS, and CCh, and see if with the added resolution of this first-of-its-kind PC platform, we might be able to determine high-resolution EC50's. To generate sufficient cells for plating out all necessary conditions we first expanded and enriched ISCs in traditional 3-D culture and subsequently differentiated for 4 days towards PCs (ENR+CD). Next, we passaged and plated these cells into 96-well plates as 2.5-D and continued differentiating for an additional 2 days in ENR+CD. On day 6 of differentiation, each well was then washed with basal media repeatedly and stimulated with its respective agent, with a measurement of supernatant LYZ paired to cell pellet ATP (FIG. 2A). This screen was repeated on three separate occasions with cells from three distinct murine donors and analyzed combined. We first wanted to determine the approximate standardized effect size of each treatment at each dose, which was accomplished through the replicate-based strictly standardized mean difference (SSMD), an effect size measure based on the statistics of contrast variables, and particularly useful in screening applications as it is a measure which takes into account both mean difference and variance in a single measure. […]

6-day ENR+CD cells [6] = assay: Short-term (3-hour) stimulation of LYZ secretion, 2.5-D 96-well platform; format: cell-based, murine; conditions: 3-hour stimulation, across all tested doses
Excerpt: We first sought to profile the potential short-term actors, IFN-γ, LPS, and CCh, and see if with the added resolution of this first-of-its-kind PC platform, we might be able to determine high-resolution EC50's. To generate sufficient cells for plating out all necessary conditions we first expanded and enriched ISCs in traditional 3-D culture and subsequently differentiated for 4 days towards PCs (ENR+CD). Next, we passaged and plated these cells into 96-well plates as 2.5-D and continued differentiating for an additional 2 days in ENR+CD. On day 6 of differentiation, each well was then washed with basal media repeatedly and stimulated with its respective agent, with a measurement of supernatant LYZ paired to cell pellet ATP (FIG. 2A). This screen was repeated on three separate occasions with cells from three distinct murine donors and analyzed combined. We first wanted to determine the approximate standardized effect size of each treatment at each dose, which was accomplished through the replicate-based strictly standardized mean difference (SSMD), an effect size measure based on the statistics of contrast variables, and particularly useful in screening applications as it is a measure which takes into account both mean difference and variance in a single measure. […] In total, we see that our 2.5-D platform does provide a reasonable system for assessing and screening for potential short-term modulators of PC antimicrobial secretion.
Small intestinal crypts were isolated from C57BL/6 mice of both sexes, aged between three to six months in all experiments. Crypts were then cultured in a Matrigel culture system. Briefly, crypts were resuspended in basal culture medium (Advanced DMEM/F12 with 2 mM GlutaMAX and 10 mM HEPES; Thermo Fisher Scientific) at a 1:1 ratio with Corning™ Matrigel™ Membrane Matrix—GFR (Fisher Scientific) and plated at the center of each well of 24-well plates. […]

6-day ENR+CD cells [7] = assay: Long-term (48-hour) modulators of basal and CCh-induced LYZ secretion; format: cell-based, murine; conditions: 48-hour treatment
Excerpt: We next sought to profile potential long-term modulators of differentiated PC survival and antimicrobial secretion, as well as gauge the interaction between long-term modulators and short-term induced secretion (via CCh). To accomplish this, we employed a similar set up as in the short-term experiment, with the exception that upon plating day 4 ENR+CD cells we additionally supplemented in either MDP, LPS, TNF-α, or IFN-γ for the additional 2 days in culture and assayed all conditions for both basal and CCh-induced LYZ secretion over 3 hours on day 6 of differentiation (FIG. 3A). […] Additionally, we see that the long-term addition reduces CCh-induced secretory function relative to the untreated control for all agents (FIG. 3D).
Small intestinal crypts were isolated from C57BL/6 mice of both sexes, aged between three to six months in all experiments. Crypts were then cultured in a Matrigel culture system. Briefly, crypts were resuspended in basal culture medium (Advanced DMEM/F12 with 2 mM GlutaMAX and 10 mM HEPES; Thermo Fisher Scientific) at a 1:1 ratio with Corning™ Matrigel™ Membrane Matrix—GFR (Fisher Scientific) and plated at the center of each well of 24-well plates. Following Matrigel polymerization, 500 μL of small intestinal crypt culture medium (basal media plus 100× N2 supplement, 50×B27 supplement; Life Technologies, 500× N-acetyl-L-cysteine; Sigma-Aldrich) supplemented with growth factors EGF—E (50 ng/mL, Life Technologies), Noggin—N (100 ng/mL, PeproTech) and R-spondin 1—R (500 ng/mL, PeproTech) and small molecules CHIR99021—C (3 μM, LC Laboratories) and valproic acid—V (1 mM, Sigma-Aldrich) was added to each well. ROCK inhibitor Y-27632—Y (10 μM, R&D Systems) was added for the first 2 days of culture. Cells were cultured at 37° C. with 5% CO2, and cell culture medium was changed every other day. After 6 days of culture, crypt organoids were isolated from Matrigel by mechanical dissociation. To expand enriched ISCs (ENR+CV/Y) or Paneth Cells (ENR+CD), organoids were cultured in 24-well plates, suspended in 40 uL 3-D gels (50-50 GFR MATRIGEL®, Basal culture media), with 500 uL of crypt media supplemented with necessary growth factors and small molecules. ROCK inhibitor (Y) was added for the first two days of ISC culture following reconstitution from cryopreservation or trypLE passaging to single cells. Cell culture medium was changed every other day. After 4 days of culture in ENR+CV, cell clusters were differentiated to PCs under the ENR+CD condition for 96-well short and long-term screens. For 384-well differentiation screens, 4-day ENR+CV clusters were passaged to single cells using trypLE, replated and expanded another 3 days in 3-D ENR+CVY and then passaged directly into screens.
For 96-well plate high-throughput screening, 4-day differentiated (ENR+CD) cell clusters in 3D Matrigel were transferred to a “2.5-D” 96-well plate culture system. Briefly, cell culture gel and medium were homogenized via mechanical disruption and centrifuged at 300 g for 3 min at 4° C. […] On the last repeat, pellet was resuspended in basal culture medium, the number of cell clusters counted, and centrifuged at 300 g for 3 min at 4° C. […] At end time points (following 2 days in culture and 3 hours of stimulation), lysozyme secretion and cell viability were assessed using Lysozyme Assay Kit and CellTiter-Glo 3D Cell Viability Assay (Promega), respectively, according to the manufacturers' protocols. […]

Compound | biological potency compared with Bosutinib (LYZ assays) ([1]; 6-day ENR+CD+treatment) | validation in secondary screen (SSMD above cutoff for both LYZ.NS and LYZ.S) ([1]; 6-day ENR+CD+treatment vs ENR+CD+DMSO, cutoff 0.89, 8 replicates) | secretory precursor (CD24-hi) population relative to control [2] | primary screen hit status in LYZ.NS and LYZ.S assays [3] | LYZ.S reading versus ENR+DMSO [4] | LYZ.NS/ATP, early versus full treatment ([1]; ENR+CD, 240 nM) | ATP-normalized LYZ assays (LYZ.NS/ATP, LYZ.S/ATP), early versus full treatment ([1]; ENR+CD, across all doses) | effect on cellular ATP (6-day ENR+CD cells [5]) | SSMD effect size as short-term modulator of LYZ secretion (6-day ENR+CD cells [6]) | effect size of reduction of CCh-induced secretory function relative to untreated control (6-day ENR+CD cells [7]; CCh-induced secretion over 3 hours on day 6) | change in basal LYZ secretion (SSMD effect) (6-day ENR+CD cells [7]; basal secretion over 3 hours on day 6)
Cc1cn(-c2cc(NC(=O)c3ccc(C)c(Nc4nccc(-c5cccnc5)n4)c3)cc(C(F)(F)F)c2)cn1 [Nilotinib] | the more biologically potent | multiple validated doses | higher proportion | strongest LYZ assay-performing treatment-dose | significantly lower | – | – | – | – | – | –
NC(=O)c1ccc(-c2nc(-c3ccc4c(c3)OCO4)c(-c3ccccn3)[nH]2)cc1 [SB431542] | – | – | – | strongest LYZ assay-performing treatment-dose | – | significant (adj. p<0.05) difference between early and full treatment | suggestive trend across all doses | – | – | – | –
IFN-γ: cytokine interferon-gamma | – | – | – | – | – | – | – | no significant changes in cellular ATP | fairly weak effect sizes | fairly moderate | moderate increase in secretion

— patent US20200237852A1, “Small Molecule Enhancers of Paneth Cell Function and Differentiation” (Massachusetts Institute of Technology, priority 2019, published 2020)
